Data as given in US20050096254A1, “Peptide deformylase activated prodrugs” (priority 2002, published 2005).

Tested on: P. aeruginosa
Experiment: MIC susceptibility testing (modified NCCLS)
Type: cell-based
Description: The NCCLS (National Committee for Clinical Laboratory Standards), method to determine MIC's of antimicrobial compounds is modified for high-throughput screening. All stocks of tested compounds are prepared in either water or in DMSO depending on solubility. At the highest concentration, DMSO content should not exceed 0.5%. Briefly, twenty 2-fold serial dilutions of test compounds from the highest concentration is made in a 384-well microtiter plate. […] Bacterial growth is determined by the increase of optical density at 600 nm using a microplate reader (Tecan SpectraFluor Plus).

CSCC[C@H](NC=O)C(=O)N[C@@H](CC(C)C)C(=O)Oc1cc(Cl)ccc1Oc1ccc(Cl)cc1Cl [Compound #2]
MIC (Table 4, P. aeruginosa ATCC 21726, Exp. #1): >64 µg/mL
MIC (Table 4, P. aeruginosa ATCC 21726, Exp. #2): ≧64 μg/ml
MIC (Table 4, P. aeruginosa ATCC 29872, Exp. #1): >64 µg/mL
MIC (Table 4, P. aeruginosa ATCC 29872, Exp. #2): ≧64 μg/ml
